Results published in patent publication US10125150B2, “Crystalline forms of a PI3K inhibitor” (Incyte Corporation, priority 2015, dated 2018).

What was measured:
[1] = biological target: human JAK1 (a.a. 837-1142) (Homo sapiens, UniProt P23458); experiment: In vitro JAK kinase assay (Example D), JAK1; type: biochemical; conditions: 1 mM ATP
JAK2 (a.a. 828-1132) = JAK2 (a.a. 828-1132) (Homo sapiens (Human), UniProt O60674); experiment: In vitro JAK kinase assay (Example D), JAK2; type: biochemical; conditions: ratio JAK2/JAK1 of IC50s, 1 mM ATP
JAK2 (a.a. 828-1132), sequence (O60674 828-1132): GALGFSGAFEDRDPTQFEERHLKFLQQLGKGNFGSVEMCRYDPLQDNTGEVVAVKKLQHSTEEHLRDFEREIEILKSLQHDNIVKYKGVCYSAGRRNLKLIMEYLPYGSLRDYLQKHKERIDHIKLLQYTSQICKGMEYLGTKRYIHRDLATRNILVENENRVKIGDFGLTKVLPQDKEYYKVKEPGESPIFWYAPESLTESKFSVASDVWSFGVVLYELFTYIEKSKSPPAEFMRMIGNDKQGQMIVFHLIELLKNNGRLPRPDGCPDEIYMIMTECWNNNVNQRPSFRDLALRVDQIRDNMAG

[2] = Dynamic Vapor Sorption (DVS), moisture adsorption/desorption; type: physicochemical; conditions: 25° C.
Protocol: Dynamic Vapor Sorption (DVS) was performed in an SGA-100 Symmetric Vapor Sorption Analyzer from VTI Corporation. The moisture uptake profile was completed in three cycles in 10% RH increments with the first adsorption from 25% to 95% RH, followed by desorption in 10% increments from 95% to 5% RH. The equilibration criteria were 0.0050 wt % in 5 minutes with a maximum equilibration time of 180 minutes. All adsorption and desorption were performed at room temperature (25° C.). No pre-drying step was applied for the sample.
Moisture adsorption/desorption of Form I was analyzed by DVS. […] The shapes of the isotherms indicate weak adsorbent-adsorbate interaction and a low moisture uptake at low vapor concentration.

[3] = Competitive slurry experiments (stability of the crystalline forms), solid characterized by XRPD; type: physicochemical; conditions: 50° C.
Protocol: Forms I and X of the compound of Formula I were slurried together in a methanol-ethyl acetate (1:10) solvent system and heated at 50° C. for 5 days. Specifically, 5 mL of ethyl acetate and 0.5 mL of methanol were combined and heated to 50° C. Form I (from Example 1) was added to the solvent mixture until a cloudy solution formed (about 156 mg), and then additional Form I was added (about 50 mg). Then 50 mg of Form X (prepared as described in Example 12) was added. The mixture was stirred at 50° C. for 5 days and the solid was characterized and monitored by XRPD.
Forms I to XIII of the compound of Formula I were slurried together in a methanol-ethyl acetate (1:10) solvent system at room temperature for 8 days. Specifically, 10 mg of Form I (from Example 1) was added to 1 mL of ethyl acetate with stirring. Then 0.1 mL of methanol was added giving a cloudy solution to which 3 mg of additional Form I (from Example 1) was added. […]
Forms I and X of the compound of Formula I were slurried together in acetone and heated at 50° C. overnight. […] The mixture was stirred at 50° C. overnight and the solid was characterized and monitored by XRPD.
Forms I to XIII of the compound of Formula I were slurried together in acetone at room temperature for 11 days. […] The mixture was stirred at room temperature for 11 days and the resulting solid was characterized and monitored by XRPD.

Row | Compound | IC50 [1] | JAK2/JAK1 (JAK2 (a.a. 828-1132)) | initial water content (DVS) ([2]; no pre-drying) | water adsorption (DVS) ([2]; at 85% RH) | resulting crystalline form ([3]; Forms I and X slurried in acetone, overnight) | resulting crystalline form ([3]; Forms I and X slurried in methanol-ethyl acetate (1:10), 5 days)
1 | N#CCC1(n2cc(-c3ncnc4[nH]ccc34)cn2)CN(C2CCN(C(=O)Nc3ccc(F)cc3C(F)(F)F)CC2)C1 [Form 8, 4-{3-(Cyanomethyl)-3-[4-(7H-pyrrolo[2,3-d]pyrimidin-4-yl)-1H-pyrazol-1-yl]azetidin-1-yl}-N-[4-fluoro-2-(trifluoromethyl)phenyl]piperidine-1-carboxamide] | < 10 nM | >10 |  |  |  | 
2 | CCNCc1cc(O[C@H]2CC[C@@H](N3CC(CC#N)(n4cc(-c5ncnc6[nH]ccc56)cn4)C3)CC2)nc(C(F)(F)F)c1 [Form 19, {1-(cis-4-{[4-[(ethylamino)methyl]-6-(trifluoromethyl)pyridin-2-yl]oxy}cyclohexyl)-3-[4-(7H-pyrrolo[2,3-d]pyrimidin-4-yl)-1H-pyrazol-1-yl]azetidin-3-yl}acetonitrile] | < 10 nM | >10 |  |  |  | 
3 | C[C@H](NC(=O)c1cc(F)c(N2CC(CC#N)(n3cc(-c4ncnc5[nH]ccc45)cn3)C2)cc1F)C(F)(F)F [Form 16, 4-{3-(cyanomethyl)-3-[4-(7H-pyrrolo[2,3-d]pyrimidin-4-yl)-1H-pyrazol-1-yl]azetidin-1-yl}-2,5-difluoro-N-[(1S)-2,2,2-trifluoro-1-methylethyl]benzamide] | < 10 nM | >10 |  |  |  | 
4 | N#CC[C@]1(n2cc(-c3ncnc4[nH]ccc34)cn2)C[C@H](N2CCN(C(=O)c3ccnc(C(F)(F)F)n3)CC2)C1 [Form 10, [trans-1-[4-(7H-pyrrolo[2,3-d]pyrimidin-4-yl)-1H-pyrazol-1-yl]-3-(4-{[2-(trifluoromethyl)pyrimidin-4-yl]carbonyl}piperazin-1-yl)cyclobutyl]acetonitrile] | < 10 nM | >10 |  |  |  | 
5 | N#CCC1(n2cc(-c3ncnc4[nH]ccc34)cn2)CN([C@H]2CC[C@@H](Oc3cc(CCO)nc(C(F)(F)F)n3)CC2)C1 [Form 18, {1-(cis-4-{[6-(2-hydroxyethyl)-2-(trifluoromethyl)pyrimidin-4-yl]oxy}cyclohexyl)-3-[4-(7H-pyrrolo[2,3-d]pyrimidin-4-yl)-1H-pyrazol-1-yl]azetidin-3-yl}acetonitrile] | < 10 nM | >10 |  |  |  | 
6 | N#CCC(CN1CCN(C(=O)c2ccc(C#N)cc2F)CC1)n1ccc(-c2ncnc3[nH]ccc23)c1 (stereo not drawn) [Form 6, 4-[(4-{3-cyano-2-[3-(7H-pyrrolo[2,3-d]pyrimidin-4-yl)-1H-pyrrol-1-yl]propyl}piperazin-1-yl)carbonyl]-3-fluorobenzonitrile] | < 10 nM | >10 |  |  |  | 
7 | N#CCC(C1CCN(c2cccc(Cl)n2)C1)n1cc(-c2ncnc3[nH]ccc23)cn1 (single isomer, unassigned) [Form 3, 3-[1-(6-chloropyridin-2-yl)pyrrolidin-3-yl]-3-[4-(7H-pyrrolo[2,3-d]pyrimidin-4-yl)-1H-pyrazol-1-yl]propanenitrile] | < 10 nM | >10 |  |  |  | 
8 | CC(C)(O)c1cc(O[C@H]2CC[C@@H](N3CC(CC#N)(n4cc(-c5ncnc6[nH]ccc56)cn4)C3)CC2)nc(C(F)(F)F)c1 [Form 20, {1-(cis-4-{[4-(1-hydroxy-1-methylethyl)-6-(trifluoromethyl)pyridin-2-yl]oxy}cyclohexyl)-3-[4-(7H-pyrrolo[2,3-d]pyrimidin-4-yl)-1H-pyrazol-1-yl]azetidin-3-yl}acetonitrile] | < 10 nM | >10 |  |  |  | 
9 | Cc1csc2nc([C@H](C)Nc3ncnc4[nH]cnc34)c(-c3cccc(F)c3)c(=O)n12 [Form I, (S)-7-(1-(9H-purin-6-ylamino)ethyl)-6-(3-fluorophenyl)-3-methyl-5H-thiazolo[3,2-a]pyrimidin-5-one] |  |  | about 0.3% | 1.8% | predominantly Form X | predominantly Form I

Second part, the molecule after the results:

Row | IC50 [1] | JAK2/JAK1 (JAK2 (a.a. 828-1132)) | initial water content (DVS) ([2]; no pre-drying) | water adsorption (DVS) ([2]; at 85% RH) | resulting crystalline form ([3]; Forms I and X slurried in acetone, overnight) | resulting crystalline form ([3]; Forms I and X slurried in methanol-ethyl acetate (1:10), 5 days) | Compound
10 | < 10 nM | >10 |  |  |  |  | C[C@@H](CO)NCc1cc(OC2CCN([C@H]3C[C@](CC#N)(n4cc(-c5ncnc6[nH]ccc56)cn4)C3)CC2)nc(C(F)(F)F)c1 [Form 23, {trans-3-(4-{[4-({[(1S)-2-hydroxy-1-methylethyl]amino}methyl)-6-(trifluoromethyl)pyridin-2-yl]oxy}piperidin-1-yl)-1-[4-(7H-pyrrolo[2,3-d]pyrimidin-4-yl)-1H-pyrazol-1-yl]cyclobutyl}acetonitrile]
11 | < 10 nM | >10 |  |  |  |  | N#CC[C@]1(n2cc(-c3ncnc4[nH]ccc34)cn2)C[C@H](N2CCC(Oc3cc(CN4CCC[C@H]4CO)cc(C(F)(F)F)n3)CC2)C1 [Form 12, {trans-3-(4-{[4-{[(2S)-2-(hydroxymethyl)pyrrolidin-1-yl]methyl}-6-(trifluoromethyl)pyridin-2-yl]oxy}piperidin-1-yl)-1-[4-(7H-pyrrolo[2,3-d]pyrimidin-4-yl)-1H-pyrazol-1-yl]cyclobutyl}acetonitrile]
12 | < 10 nM | >10 |  |  |  |  | N#CC[C@]1(n2cc(-c3ncnc4[nH]ccc34)cn2)C[C@H](N2CCC(Oc3cc(CCO)cc(C(F)(F)F)n3)CC2)C1 [Form 26, {trans-3-(4-{[4-(2-hydroxyethyl)-6-(trifluoromethyl)pyridin-2-yl]oxy}piperidin-1-yl)-1-[4-(7H-pyrrolo[2,3-d]pyrimidin-4-yl)-1H-pyrazol-1-yl]cyclobutyl}acetonitrile]
13 | < 10 nM | >10 |  |  |  |  | C[C@@H](O)CNCc1cc(OC2CCN([C@H]3C[C@](CC#N)(n4cc(-c5ncnc6[nH]ccc56)cn4)C3)CC2)nc(C(F)(F)F)c1 [Form 24, {trans-3-(4-{[4-({[(2R)-2-hydroxypropyl]amino}methyl)-6-(trifluoromethyl)pyridin-2-yl]oxy}piperidin-1-yl)-1-[4-(7H-pyrrolo[2,3-d]pyrimidin-4-yl)-1H-pyrazol-1-yl]cyclobutyl}acetonitrile]
14 | < 10 nM | >10 |  |  |  |  | N#CC[C@]1(n2cc(-c3ncnc4[nH]ccc34)cn2)C[C@H](N2CCC(Oc3cc(CN4CC(O)C4)cc(C(F)(F)F)n3)CC2)C1 [Form 11, {trans-3-(4-{[4-[(3-hydroxyazetidin-1-yl)methyl]-6-(trifluoromethyl)pyridin-2-yl]oxy}piperidin-1-yl)-1-[4-(7H-pyrrolo[2,3-d]pyrimidin-4-yl)-1H-pyrazol-1-yl]cyclobutyl}acetonitrile]
